Experimental data from the NIST ThermoML archive (doi:10.1021/je800224k).
± gives the expanded uncertainty stated by the source.

Conditions: Liquid

CCCCCCn1cc[n+](C)c1.F[B-](F)(F)F [1-hexyl-3-methylimidazolium tetrafluoroborate]
Conditions	mass density [kg/m3]
293.15 K, 101.33 kPa, Vibrating tube method	1148.5 ± 3.4
313.15 K, 101.33 kPa, Vibrating tube method	1134.7 ± 3.3
313.3 K, 10000 kPa, Bellows volumetry	1139 ± 3
313.3 K, 20000 kPa, Bellows volumetry	1144 ± 3
313.3 K, 30000 kPa, Bellows volumetry	1149 ± 3
313.3 K, 40000 kPa, Bellows volumetry	1154 ± 3
313.3 K, 50000 kPa, Bellows volumetry	1158 ± 3
313.3 K, 60000 kPa, Bellows volumetry	1162 ± 3
313.3 K, 70000 kPa, Bellows volumetry	1167 ± 3
313.3 K, 80000 kPa, Bellows volumetry	1171 ± 3
313.3 K, 90000 kPa, Bellows volumetry	1174 ± 3
313.3 K, 100000 kPa, Bellows volumetry	1178 ± 4
313.3 K, 110000 kPa, Bellows volumetry	1182 ± 4
313.3 K, 120000 kPa, Bellows volumetry	1186 ± 4
313.3 K, 130000 kPa, Bellows volumetry	1189 ± 4
313.3 K, 140000 kPa, Bellows volumetry	1193 ± 4
313.3 K, 150000 kPa, Bellows volumetry	1196 ± 4
313.3 K, 160000 kPa, Bellows volumetry	1199 ± 4
313.3 K, 170000 kPa, Bellows volumetry	1202 ± 4
313.3 K, 180000 kPa, Bellows volumetry	1206 ± 4
313.3 K, 190000 kPa, Bellows volumetry	1209 ± 4
313.3 K, 200000 kPa, Bellows volumetry	1212 ± 4
332.5 K, 10000 kPa, Bellows volumetry	1126 ± 3
332.5 K, 20000 kPa, Bellows volumetry	1131 ± 3
332.5 K, 30000 kPa, Bellows volumetry	1136 ± 3
332.5 K, 40000 kPa, Bellows volumetry	1141 ± 3
332.5 K, 50000 kPa, Bellows volumetry	1146 ± 3
332.5 K, 60000 kPa, Bellows volumetry	1150 ± 3
332.5 K, 70000 kPa, Bellows volumetry	1154 ± 3
332.5 K, 80000 kPa, Bellows volumetry	1159 ± 3
332.5 K, 90000 kPa, Bellows volumetry	1163 ± 3
332.5 K, 100000 kPa, Bellows volumetry	1167 ± 3
332.5 K, 110000 kPa, Bellows volumetry	1170 ± 3
332.5 K, 120000 kPa, Bellows volumetry	1174 ± 3
332.5 K, 130000 kPa, Bellows volumetry	1178 ± 3
332.5 K, 140000 kPa, Bellows volumetry	1181 ± 4
332.5 K, 150000 kPa, Bellows volumetry	1185 ± 4
332.5 K, 160000 kPa, Bellows volumetry	1188 ± 4
332.5 K, 170000 kPa, Bellows volumetry	1192 ± 4
332.5 K, 180000 kPa, Bellows volumetry	1195 ± 4
332.5 K, 190000 kPa, Bellows volumetry	1198 ± 4
332.5 K, 200000 kPa, Bellows volumetry	1201 ± 4
333.15 K, 101.33 kPa, Vibrating tube method	1121 ± 3.3
352.6 K, 10000 kPa, Bellows volumetry	1113 ± 3
352.6 K, 20000 kPa, Bellows volumetry	1118 ± 3
352.6 K, 30000 kPa, Bellows volumetry	1123 ± 3
352.6 K, 40000 kPa, Bellows volumetry	1128 ± 3
352.6 K, 50000 kPa, Bellows volumetry	1133 ± 3
352.6 K, 60000 kPa, Bellows volumetry	1138 ± 3
352.6 K, 70000 kPa, Bellows volumetry	1142 ± 3
352.6 K, 80000 kPa, Bellows volumetry	1147 ± 3
352.6 K, 90000 kPa, Bellows volumetry	1151 ± 3
352.6 K, 100000 kPa, Bellows volumetry	1155 ± 3
352.6 K, 110000 kPa, Bellows volumetry	1159 ± 3
352.6 K, 120000 kPa, Bellows volumetry	1163 ± 3
352.6 K, 130000 kPa, Bellows volumetry	1167 ± 3
352.6 K, 140000 kPa, Bellows volumetry	1170 ± 3
352.6 K, 150000 kPa, Bellows volumetry	1174 ± 3
352.6 K, 160000 kPa, Bellows volumetry	1177 ± 3
352.6 K, 170000 kPa, Bellows volumetry	1181 ± 4
352.6 K, 180000 kPa, Bellows volumetry	1184 ± 4
352.6 K, 190000 kPa, Bellows volumetry	1187 ± 4
352.6 K, 200000 kPa, Bellows volumetry	1191 ± 4
353.15 K, 101.33 kPa, Vibrating tube method	1107.6 ± 3.3
372.7 K, 10000 kPa, Bellows volumetry	1099 ± 3
372.7 K, 20000 kPa, Bellows volumetry	1105 ± 3
372.7 K, 30000 kPa, Bellows volumetry	1111 ± 3
372.7 K, 40000 kPa, Bellows volumetry	1116 ± 3
372.7 K, 50000 kPa, Bellows volumetry	1121 ± 3
372.7 K, 60000 kPa, Bellows volumetry	1126 ± 3
372.7 K, 70000 kPa, Bellows volumetry	1131 ± 3
372.7 K, 80000 kPa, Bellows volumetry	1135 ± 3
372.7 K, 90000 kPa, Bellows volumetry	1139 ± 3
372.7 K, 100000 kPa, Bellows volumetry	1144 ± 3
372.7 K, 110000 kPa, Bellows volumetry	1148 ± 3
372.7 K, 120000 kPa, Bellows volumetry	1152 ± 3
372.7 K, 130000 kPa, Bellows volumetry	1156 ± 3
372.7 K, 140000 kPa, Bellows volumetry	1160 ± 3
372.7 K, 150000 kPa, Bellows volumetry	1163 ± 3
372.7 K, 160000 kPa, Bellows volumetry	1167 ± 3
372.7 K, 170000 kPa, Bellows volumetry	1170 ± 3
372.7 K, 180000 kPa, Bellows volumetry	1174 ± 3
372.7 K, 190000 kPa, Bellows volumetry	1177 ± 3
372.7 K, 200000 kPa, Bellows volumetry	1180 ± 4
393 K, 10000 kPa, Bellows volumetry	1087 ± 3
393 K, 20000 kPa, Bellows volumetry	1093 ± 3
393 K, 30000 kPa, Bellows volumetry	1098 ± 3
393 K, 40000 kPa, Bellows volumetry	1104 ± 3
393 K, 50000 kPa, Bellows volumetry	1109 ± 3
393 K, 60000 kPa, Bellows volumetry	1114 ± 3
393 K, 70000 kPa, Bellows volumetry	1119 ± 3
393 K, 80000 kPa, Bellows volumetry	1124 ± 3
